Laboratory results: EP0545103A1, “Insecticidal, acaricidal and molluscicidal 1-(substituted) thioalkylpyrroles” (priority 1991, dated 1993)

Legend:
Assay type in all cases: in vivo
Parameters in all cases: key: 0: no effect; 10-25% kill; 26-35% kill; 36-45% kill; 46-55% kill; 56-65% kill; 66-75% kill; 76-85% kill; 86-99% kill; 9: 100% kill
[1] = system: Spodoptera eridania, 3rd instar larvae, southern armyworm; assay: Southern armyworm 7-day residual test; conditions: R designates Residual: 7-day residual foliage, concentration not given; for ARMYWORM Day 3 R: rating at 3 days; for ARMYWORM Day 5 R: rating at 5 days
How it was run: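 Compound was dissolved in 35% aqueous acetone (10,000 ppm stock) and diluted with water before treating lima bean leaves. The leaves were aged 7 days under high-intensity greenhouse lamps (14 h day). Third-instar Spodoptera eridania larvae were then assayed on the foliage and rated on a scale.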

[2] = system: Spodoptera eridania, 3rd instar larvae, southern armyworm; assay: Southern armyworm 3rd instar test, dipped limabean leaf; conditions: for ARMYWORM Day 3: rating at 3 days; for ARMYWORM Day 5: rating at 5 days
How it was run: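 Compound dissolved in 35% acetone/water at 10,000 ppm stock, diluted with water. Sieva limabean leaves dipped 3 s, dried, and exposed to ten 3rd instar larvae on damp filter paper. Mortality, reduced feeding and molting interference scored at 3 and 5 days on a rating scale.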

[3] = system: Heliothis virescens, egg, tobacco budworm; assay: Tobacco budworm egg test, dipped cotton leaf and eggs; conditions: mortality rating after 3 days
How it was run: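 Compound dissolved at 10,000 ppm in 35% aqueous acetone, diluted with water. A cotton leaf and a cheesecloth square with roughly 50-100 eggs aged 6-30 h are each dipped for about 3 s, then combined and kept humid. Mortality counted after 3 days and rated on a scale.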

[4] = system: Spodoptera eridania, 3rd instar larvae, southern armyworm; assay: Southern armyworm systemic uptake (stem systemic) test; conditions: cut stem in emulsion 3 days
[5] = system: Aphis fabae, mixed instar, bean aphid; assay: Bean aphid spray test on nasturtium; conditions: 100 ppm
How it was run: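 Compound dissolved at 10,000 ppm in 35% acetone/water, then water-diluted. Nasturtium plants (~5 cm) infested with 100-200 aphids one day before spraying to full coverage on a turntable; mortality estimated after 2 days on a rating scale.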

[6] = system: Tetranychus urticae (OP-resistant strain), 2-spotted spider mite; assay: 2-spotted spider mite test, dipped infested limabean plants
How it was run: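 Mite-infested Sieva limabean plants (OP-resistant strain, ~100 mites per leaf, transferred ~2 h earlier) dipped 3 s with agitation in compound solution (10,000 ppm stock in 35% acetone/water, diluted with water). Mortality counted at 2 days; egg and nymph mortality assessed at 5 days; rated on a scale.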

[7] = system: Heliothis virescens, 3rd instar tobacco budworm; assay: Tobacco budworm 3rd instar test, dipped cotton cotyledons; conditions: mortality rating after 3 days
How it was run: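 Cotton cotyledons dipped in compound solution (10,000 ppm stock in 35% aqueous acetone, water dilutions), dried and quartered. One caterpillar per section, ten sections per treatment. After 3 days, mortality and feeding-damage reduction scored on a rating scale.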

[8] = 10 ppm, adult mites, rating scale 0-9
[9] = 10 ppm, mite eggs, rating scale 0-9
[10] = 100 ppm, adult mites, rating scale 0-9
[11] = 100 ppm, mite eggs, rating scale 0-9
[12] = 300 ppm, adult mites, rating scale 0-9
[13] = 300 ppm, mite eggs, rating scale 0-9
[14] = 300 ppm, mite nymphs, rating scale 0-9
[15] = 10 ppm, mite nymphs, rating scale 0-9
[16] = 100 ppm, mite nymphs, rating scale 0-9
[17] = spray, mortality rating after 2 days
[18] = 300 ppm, mortality rating after 2 days

| SMILES | ARMYWORM Day 3 R [1] | ARMYWORM Day 5 R [1] | ARMYWORM Day 3 ([2]; 10 ppm) | ARMYWORM Day 5 ([2]; 10 ppm) | ARMYWORM Day 3 ([2]; 100 ppm) | ARMYWORM Day 5 ([2]; 100 ppm) | ARMYWORM Day 3 ([2]; 1000 ppm) | ARMYWORM Day 5 ([2]; 1000 ppm) | TOBACCO BUDWORM Egg ([3]; 100 ppm) | TOBACCO BUDWORM Egg ([3]; 1000 ppm) | ARMYWORM Stem Sys [4] | APHIDS ([5]; rating scale 0-9) | OP-RESISTANT MITES Adult [6, 8] | OP-RESISTANT MITES Egg [6, 9] | OP-RESISTANT MITES Adult [6, 10] | OP-RESISTANT MITES Egg [6, 11] | OP-RESISTANT MITES Adult [6, 12] | OP-RESISTANT MITES Egg [6, 13] | OP-RESISTANT MITES Nymph [6, 14] | OP-RESISTANT MITES Nymph [6, 15] | further results |
| --- | --- | --- | --- | --- | --- | --- | --- | --- | --- | --- | --- | --- | --- | --- | --- | --- | --- | --- | --- | --- | --- |
| CCOC(=S)SCn1c(-c2ccc(Cl)cc2)c(C#N)c(Br)c1C(F)(F)F [Example 29] | 9 (100% kill) | 9 (100% kill) | 9 (100% kill) | 9 (100% kill) | 9 (100% kill) | 9 (100% kill) | 9 (100% kill) | 9 (100% kill) | 0 | 4 (46-55% kill) | 0 | 0 | 9 (100% kill) | 9 (100% kill) | 9 (100% kill) | 9 (100% kill) | 9 (100% kill) | 0 | 0 | – | – |
| CCOC(=S)SCn1c(-c2ccc(Cl)c(Cl)c2)c(Br)c(C(F)(F)F)c1C(F)(F)F [Example 35] | 9 (100% kill) | 9 (100% kill) | 9 (100% kill) | 9 (100% kill) | 9 (100% kill) | 9 (100% kill) | 9 (100% kill) | 9 (100% kill) | – | 0 | 0 | 0 | – | – | – | – | – | 0 | 0 | 0 | – |
| N#Cc1c(Br)c(Br)n(CSc2ccccc2)c1-c1ccc(C(F)(F)F)cc1 [Example 45, 4,5-dibromo-1-[(phenylthio)methyl]-2-(alpha, alpha,alpha-trifluoro-p-tolyl)pyrrole-3-carbonitrile] | 0 | 0 | – | – | 0 | 0 | 8 (86-99% kill) | 8 (86-99% kill) | – | 0 | 0 | – | – | – | – | – | – | – | – | – | TOBACCO BUDWORM 3rd Instar ([7]; 100 ppm): 0; TOBACCO BUDWORM 3rd Instar ([7]; 1000 ppm): 0 |
| FC(F)(F)c1c(Br)c(-c2ccc(Cl)c(Cl)c2)n(CSC2=NCCCN2)c1C(F)(F)F [Example 17] | 9 (100% kill) | 9 (100% kill) | 9 (100% kill) | 9 (100% kill) | 9 (100% kill) | 9 (100% kill) | 9 (100% kill) | 9 (100% kill) | – | 0 | 0 | 0 | 0 | 0 | 0 | 7 (76-85% kill) | 7 (76-85% kill) | 0 | 0 | 0 | OP-RESISTANT MITES Nymph [6, 16]: 0 |
| CN(C)C(=S)SCn1c(Cl)c(C#N)c(Cl)c1-c1ccc(Cl)c(Cl)c1 [Example 36] | 9 (100% kill) | 9 (100% kill) | – | – | – | – | – | – | – | 0 | 0 | 0 | 0 | 0 | 0 | 0 | 7 (76-85% kill) | 0 | 0 | 0 | TOBACCO BUDWORM 3rd Instar ([7]; 10 ppm): 0; TOBACCO BUDWORM 3rd Instar ([7]; 100 ppm): 9 (100% kill); TOBACCO BUDWORM 3rd Instar ([7]; 1000 ppm): 9 (100% kill); OP-RESISTANT MITES Nymph [6, 16]: 0 |
| CCOC(=S)SCn1c(Cl)c(Cl)c(C#N)c1-c1ccc(Cl)c(Cl)c1 [Example 28] | 9 (100% kill) | 9 (100% kill) | – | – | – | – | – | – | 0 | 0 | 0 | 0 | – | 0 | – | 9 (100% kill) | – | 0 | 0 | 3 (36-45% kill) | TOBACCO BUDWORM 3rd Instar ([7]; 10 ppm): 0 |
| CSCn1c(-c2ccc(Cl)cc2)c(C#N)c(Br)c1C(F)(F)F [Example 25] | 9 (100% kill) | 9 (100% kill) | 0 | 0 | 9 (100% kill) | 9 (100% kill) | 9 (100% kill) | 9 (100% kill) | – | 0 | 0 | – | – | – | – | – | – | – | – | – | APHIDS [5, 17]: 0; OP-RESISTANT MITES Adult [6, 18]: 7 (76-85% kill); OP-RESISTANT MITES Egg ([6]; 300 ppm, rating after 5 days): 0; OP-RESISTANT MITES Nymph ([6]; 300 ppm, rating after 5 days): 0 |
| N#Cc1c(Br)c(C(F)(F)F)n(CSC2=NCCN2)c1-c1ccc(Cl)cc1 [Example 7] | 9 (100% kill) | 9 (100% kill) | 9 (100% kill) | 9 (100% kill) | 9 (100% kill) | 9 (100% kill) | 9 (100% kill) | 9 (100% kill) | 0 | 9 (100% kill) | 0 | – | – | – | – | – | – | – | – | – | TOBACCO BUDWORM Egg ([3]; 300 ppm): 8 (86-99% kill); APHIDS [5, 17]: 0; OP-RESISTANT MITES Adult ([6]; 10 ppm, mortality rating after 2 days): 9 (100% kill); OP-RESISTANT MITES Egg ([6]; 10 ppm, rating after 5 days): 0; OP-RESISTANT MITES Nymph ([6]; 10 ppm, rating after 5 days): 0; OP-RESISTANT MITES Adult ([6]; 100 ppm, mortality rating after 2 days): 9 (100% kill); OP-RESISTANT MITES Egg ([6]; 100 ppm, rating after 5 days): 9 (100% kill); OP-RESISTANT MITES Adult [6, 18]: 9 (100% kill); OP-RESISTANT MITES Egg ([6]; 300 ppm, rating after 5 days): 0; OP-RESISTANT MITES Nymph ([6]; 300 ppm, rating after 5 days): 0 |
| CC(C)OC(=S)SCn1c(-c2ccc(Cl)cc2)c(C#N)c(Br)c1C(F)(F)F [Example 30] | 9 (100% kill) | 9 (100% kill) | 9 (100% kill) | 9 (100% kill) | 9 (100% kill) | 9 (100% kill) | 9 (100% kill) | 9 (100% kill) | 0 | 0 | 0 | 3 (36-45% kill) | 9 (100% kill) | 9 (100% kill) | 9 (100% kill) | 9 (100% kill) | 9 (100% kill) | 0 | 0 | – | – |
